Values quoted from earlier work as cited in patent US20040037903A1, “Phytonutrient formula for the relief of chronic pain resulting from inflammation” (priority 2003, published 2004).

Columns and labels:
PGE2 = details: in vivo in rats, curcumin added to the diet
5-HETE [1] = details: in vivo in rats, curcumin added to the diet
TNF-α = details: human cell lines
IL-1B = details: human cell lines
IL-8 = details: human cell lines
[2] = animal study, similar active dose
IL-6 = details: incubation of mouse macrophages with resveratrol
5-HETE [3] = details: rat polymorphonuclear leukocytes

## COc1cc(/C=C/C(=O)CC(=O)/C=C/c2ccc(O)c(OC)c2)ccc1O [curcumin, diferuloyl methane]
PGE2
  reduction of PGE2: 38%
5-HETE [1]
  reduction of 5-HETE: 80%
TNF-α
  inhibition of cytokine TNF-α: at least 50%
IL-1B
  inhibition of cytokine IL-1B: at least 50%
IL-8
  inhibition of cytokine IL-8: at least 50%

## CCCCC1C(=O)N(c2ccccc2)N(c2ccccc2)C1=O [phenylbutazone]
[2]
  ulcerogen index: 1.7

## Oc1ccc(/C=C/c2cc(O)cc(O)c2)cc1 [resveratrol, 3,5,4′-trihydroxy-trans-stilbene]
IL-6
  inhibition of the production of IL-6: 34%
5-HETE [3]
  inhibition of 5-HETE: greater than 70%
